We go through 1 compound from paper PMC11233931, “Remodeling tumor‐associated macrophage for anti‐cancer effects by rational design of irreversible inhibition of mitogen‐activated protein kinase‐activated protein kinase 2” (MedComm, 2024).

Assay in all cases: Eurofins kinase selectivity profile against 380 other human recombinant kinases (Table S2)
Format in all cases: biochemical

In experiment [1] the target is T1, 380 human recombinant protein kinases (Homo sapiens, UniProt O15530).
T1 construct: purchased Eurofins (Celle Lévescault)
T1 sequence (O15530 1-556): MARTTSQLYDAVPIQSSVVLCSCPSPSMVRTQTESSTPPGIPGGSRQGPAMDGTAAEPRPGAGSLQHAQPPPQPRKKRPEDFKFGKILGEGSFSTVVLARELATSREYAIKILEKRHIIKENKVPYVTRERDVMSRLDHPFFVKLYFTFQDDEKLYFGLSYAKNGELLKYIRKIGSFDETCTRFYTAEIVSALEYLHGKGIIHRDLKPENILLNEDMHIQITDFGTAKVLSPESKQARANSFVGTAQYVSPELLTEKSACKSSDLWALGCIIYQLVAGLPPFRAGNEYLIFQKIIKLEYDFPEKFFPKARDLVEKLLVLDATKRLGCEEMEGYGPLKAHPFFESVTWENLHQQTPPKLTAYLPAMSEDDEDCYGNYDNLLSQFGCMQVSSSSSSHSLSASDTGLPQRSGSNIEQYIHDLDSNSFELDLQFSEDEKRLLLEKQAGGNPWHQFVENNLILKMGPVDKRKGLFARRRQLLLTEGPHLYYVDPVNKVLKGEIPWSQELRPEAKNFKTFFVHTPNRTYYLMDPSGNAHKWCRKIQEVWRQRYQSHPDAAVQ
The note with it: PDK1(h), read-out: Inhibition rate. The procedure, abridged:
(§1)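 Off-target profiling: one compound assayed by a commercial provider over 380 recombinant human protein kinases at various concentrations.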

The target in experiment [2] is T2, 380 human recombinant protein kinases (Homo sapiens, UniProt O75747).
T2 construct: purchased Eurofins (Celle Lévescault)
T2 sequence (O75747 1-1486): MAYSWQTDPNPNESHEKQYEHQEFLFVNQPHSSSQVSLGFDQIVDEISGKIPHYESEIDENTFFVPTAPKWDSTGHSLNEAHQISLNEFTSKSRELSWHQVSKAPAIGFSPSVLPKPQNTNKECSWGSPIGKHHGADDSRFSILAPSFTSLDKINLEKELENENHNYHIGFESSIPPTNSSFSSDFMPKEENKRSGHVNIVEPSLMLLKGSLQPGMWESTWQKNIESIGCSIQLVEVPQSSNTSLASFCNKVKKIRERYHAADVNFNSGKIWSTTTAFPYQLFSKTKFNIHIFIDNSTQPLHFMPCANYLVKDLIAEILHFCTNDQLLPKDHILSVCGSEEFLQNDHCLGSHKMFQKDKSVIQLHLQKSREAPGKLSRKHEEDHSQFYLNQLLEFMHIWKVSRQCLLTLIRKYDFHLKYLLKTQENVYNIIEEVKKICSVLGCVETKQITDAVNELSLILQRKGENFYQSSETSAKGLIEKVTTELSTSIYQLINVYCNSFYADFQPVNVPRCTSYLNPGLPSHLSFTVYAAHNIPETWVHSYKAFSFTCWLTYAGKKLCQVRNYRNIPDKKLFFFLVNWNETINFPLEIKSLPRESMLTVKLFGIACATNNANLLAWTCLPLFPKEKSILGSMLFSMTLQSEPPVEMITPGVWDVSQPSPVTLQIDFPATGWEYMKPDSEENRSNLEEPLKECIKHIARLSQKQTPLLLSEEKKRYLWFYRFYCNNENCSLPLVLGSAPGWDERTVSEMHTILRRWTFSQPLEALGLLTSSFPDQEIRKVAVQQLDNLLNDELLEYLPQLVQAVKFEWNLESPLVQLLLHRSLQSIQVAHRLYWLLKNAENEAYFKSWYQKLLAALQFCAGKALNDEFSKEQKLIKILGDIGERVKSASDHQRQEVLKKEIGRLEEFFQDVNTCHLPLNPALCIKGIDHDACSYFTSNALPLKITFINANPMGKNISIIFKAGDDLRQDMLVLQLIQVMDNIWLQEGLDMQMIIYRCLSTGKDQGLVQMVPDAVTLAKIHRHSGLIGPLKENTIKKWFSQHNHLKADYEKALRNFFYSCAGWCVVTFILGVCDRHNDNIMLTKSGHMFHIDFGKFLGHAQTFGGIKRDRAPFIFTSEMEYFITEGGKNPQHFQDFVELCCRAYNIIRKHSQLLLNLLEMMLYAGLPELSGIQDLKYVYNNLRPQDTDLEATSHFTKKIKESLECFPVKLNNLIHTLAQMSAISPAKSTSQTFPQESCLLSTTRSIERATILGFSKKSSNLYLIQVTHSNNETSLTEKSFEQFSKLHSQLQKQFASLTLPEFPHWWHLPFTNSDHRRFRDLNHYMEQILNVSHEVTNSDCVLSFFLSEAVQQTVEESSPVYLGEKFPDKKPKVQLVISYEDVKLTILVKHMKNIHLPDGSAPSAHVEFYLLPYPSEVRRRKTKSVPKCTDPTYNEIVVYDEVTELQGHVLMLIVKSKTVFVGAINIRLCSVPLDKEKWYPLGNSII
The note with it: PI3KC2γ(h), read-out: Inhibition rate (%). The procedure, abridged:
as §1

The target in experiment [3] is T3, 380 human recombinant protein kinases (Homo sapiens, UniProt P10721).
T3 construct: purchased Eurofins (Celle Lévescault)
The note with it: cKit(h), read-out: Inhibition rate. An outline of the steps: as §1

Experiment [4] has as its target T4, 380 human recombinant protein kinases (Homo sapiens, UniProt P16591).
T4 construct: purchased Eurofins (Celle Lévescault)
The conditions noted are these: Fer(h), read-out: Inhibition rate. The procedure, abridged:
as §1

T4 sequence (P16591 whole entry): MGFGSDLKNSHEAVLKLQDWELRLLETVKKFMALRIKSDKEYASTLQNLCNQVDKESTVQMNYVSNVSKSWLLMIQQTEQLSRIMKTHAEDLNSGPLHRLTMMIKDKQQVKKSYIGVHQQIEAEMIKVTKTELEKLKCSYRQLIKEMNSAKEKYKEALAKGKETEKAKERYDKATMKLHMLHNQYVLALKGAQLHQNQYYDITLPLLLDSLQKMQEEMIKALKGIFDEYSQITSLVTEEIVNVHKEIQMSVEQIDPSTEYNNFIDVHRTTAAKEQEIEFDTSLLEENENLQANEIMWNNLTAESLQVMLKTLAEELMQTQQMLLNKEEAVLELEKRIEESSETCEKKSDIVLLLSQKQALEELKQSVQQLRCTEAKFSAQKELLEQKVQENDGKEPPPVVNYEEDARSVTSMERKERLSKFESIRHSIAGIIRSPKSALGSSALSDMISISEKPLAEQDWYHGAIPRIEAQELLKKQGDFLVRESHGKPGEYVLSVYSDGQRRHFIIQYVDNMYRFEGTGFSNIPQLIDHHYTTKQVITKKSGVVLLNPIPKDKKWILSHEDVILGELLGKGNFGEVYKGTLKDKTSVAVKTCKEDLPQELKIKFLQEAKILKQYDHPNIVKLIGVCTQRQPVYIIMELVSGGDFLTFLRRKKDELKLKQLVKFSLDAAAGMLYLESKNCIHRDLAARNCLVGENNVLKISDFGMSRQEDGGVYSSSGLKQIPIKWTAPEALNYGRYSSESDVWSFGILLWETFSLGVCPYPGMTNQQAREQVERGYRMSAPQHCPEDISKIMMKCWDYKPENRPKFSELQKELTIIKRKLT
T3 sequence (P10721 26-976): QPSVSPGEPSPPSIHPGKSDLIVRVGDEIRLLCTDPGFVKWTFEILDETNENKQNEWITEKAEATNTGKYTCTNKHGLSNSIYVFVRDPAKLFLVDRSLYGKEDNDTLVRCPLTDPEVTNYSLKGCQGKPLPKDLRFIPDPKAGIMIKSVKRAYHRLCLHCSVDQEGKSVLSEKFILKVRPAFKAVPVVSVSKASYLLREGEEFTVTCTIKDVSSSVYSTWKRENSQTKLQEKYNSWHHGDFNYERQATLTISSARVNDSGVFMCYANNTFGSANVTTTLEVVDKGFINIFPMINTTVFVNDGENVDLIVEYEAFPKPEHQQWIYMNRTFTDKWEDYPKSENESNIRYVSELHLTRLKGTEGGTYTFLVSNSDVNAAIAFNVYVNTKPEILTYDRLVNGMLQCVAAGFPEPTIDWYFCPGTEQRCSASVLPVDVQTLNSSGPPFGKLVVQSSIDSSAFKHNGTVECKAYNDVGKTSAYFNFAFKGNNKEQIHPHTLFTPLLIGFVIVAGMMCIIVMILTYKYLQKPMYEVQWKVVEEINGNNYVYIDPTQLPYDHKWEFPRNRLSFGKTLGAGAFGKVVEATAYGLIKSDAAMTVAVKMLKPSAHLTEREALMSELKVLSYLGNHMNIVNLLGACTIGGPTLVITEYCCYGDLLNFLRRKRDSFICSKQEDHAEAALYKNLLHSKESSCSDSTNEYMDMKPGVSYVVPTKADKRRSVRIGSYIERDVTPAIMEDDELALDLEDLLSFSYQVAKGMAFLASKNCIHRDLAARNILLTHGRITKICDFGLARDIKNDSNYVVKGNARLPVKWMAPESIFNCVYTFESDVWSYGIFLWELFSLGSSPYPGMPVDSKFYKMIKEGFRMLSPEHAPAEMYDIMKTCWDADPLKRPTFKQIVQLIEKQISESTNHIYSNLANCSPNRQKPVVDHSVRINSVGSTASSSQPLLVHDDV

As to `C=CC(=O)Nc1cc(-c2cc(-c3cc4c([nH]3)CCNC4=O)ccn2)ccc1OC(F)(F)F` [compound 11], the inhibition (in general, the relative decrease from the control value, in per cent) at 0.01 µM in experiment [1] (10 nM) was -9%; in experiment [2] (10 nM) it was 6%; in experiment [3] (10 nM) it was 1%; in experiment [4] (10 nM), -11%. Further, the inhibition at 0.1 µM was -2% in experiment [1] (100 nM), 13% in experiment [2] (100 nM), -14% in experiment [3] (100 nM) and -18% in experiment [4] (100 nM). Besides, the inhibition at 1 µM in experiment [1] (1000 nM) is 3%; in experiment [2] (1000 nM), 12%; in experiment [3] (1000 nM) it was 9%; in experiment [4] (1000 nM), -11%.
